Test results reported in patent US11325899B2, “Benzofurane and benzothiophene derivatives as PGE2 receptor modulators” (IDORSIA PHARMACEUTICALS LTD, priority 2017, dated 2022).

How the values were obtained:
Type in all cases: cell-based
EP4 receptor = target: T1, EP4 receptor (Homo sapiens, UniProt P35408); assay: hEP4 cAMP assay (BT549 breast cancer cells, HTRF cAMP, PGE2 stimulation); conditions: antagonistic activity, PGE2 6 nM (EC80)
T1 construct: BT549 breast cancer cells, express high endogenous EP4 levels and very low EP2 levels; host or cells: BT549 breast cancer cells
T1 sequence (P35408 whole entry): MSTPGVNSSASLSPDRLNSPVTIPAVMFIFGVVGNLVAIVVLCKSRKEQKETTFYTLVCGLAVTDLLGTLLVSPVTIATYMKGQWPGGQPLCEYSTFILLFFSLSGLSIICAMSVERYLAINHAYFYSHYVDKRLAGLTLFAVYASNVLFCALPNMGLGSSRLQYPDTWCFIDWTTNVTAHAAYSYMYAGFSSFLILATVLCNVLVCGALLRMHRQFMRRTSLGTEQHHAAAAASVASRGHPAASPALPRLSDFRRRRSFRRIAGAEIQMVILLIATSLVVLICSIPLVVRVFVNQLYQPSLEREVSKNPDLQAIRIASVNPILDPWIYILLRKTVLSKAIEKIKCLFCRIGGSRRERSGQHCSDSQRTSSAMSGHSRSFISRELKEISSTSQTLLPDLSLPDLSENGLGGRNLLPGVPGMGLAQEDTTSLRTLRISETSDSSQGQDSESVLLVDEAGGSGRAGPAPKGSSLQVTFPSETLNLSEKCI
Method in brief: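 BT549 cells, with endogenous EP4 and very low EP2, were preincubated 45 min at room temperature with compound in HBSS/HEPES/BSA buffer with 2 mM IBMX. They were then stimulated 30 min with 6 nM PGE2 (EC80). cAMP was measured by HTRF competitive immunoassay against a calibrator; IC50 from duplicate dose-response as % of DMSO control.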

PTGER2 (EP2) = target: T2, PTGER2 (EP2) (Homo sapiens, UniProt P43116); assay: hEP2 b-arrestin assay (PathHunter HEK 293 PTGER2 b-arrestin cells); conditions: antagonistic activity, beta-arrestin assay; read-out: hEP2 b-arr IC50
T2 construct: host or cells: HEK 293 (PathHunter PTGER2 b-arrestin cell line)
T2 sequence (P43116 whole entry): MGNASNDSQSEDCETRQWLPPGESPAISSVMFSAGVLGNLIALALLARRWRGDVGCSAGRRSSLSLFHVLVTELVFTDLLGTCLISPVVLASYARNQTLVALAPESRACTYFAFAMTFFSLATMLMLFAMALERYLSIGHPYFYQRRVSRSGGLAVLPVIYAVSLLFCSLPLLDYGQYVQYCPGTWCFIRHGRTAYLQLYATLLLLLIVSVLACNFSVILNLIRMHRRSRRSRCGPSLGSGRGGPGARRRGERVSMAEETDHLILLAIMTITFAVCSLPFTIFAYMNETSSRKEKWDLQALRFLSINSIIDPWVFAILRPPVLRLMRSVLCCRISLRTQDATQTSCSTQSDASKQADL
Method in brief: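 Antagonism measured as inhibition of PGE2-driven β-arrestin 2 recruitment (enzyme fragment complementation, luminescence) in engineered HEK293 EP2 cells. Agonist: 5 μM PGE2, ~EC80, 120 min at 37 °C after 15 min compound preincubation; test range 10 μM-2 nM or 1 μM-0.2 nM, duplicates, IC50 fitted.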

PTGER4 (EP4) = target: T3, PTGER4 (EP4) (Homo sapiens, UniProt P35408); assay: hEP4 b-arrestin assay (PathHunter HEK 293 PTGER4 b-arrestin cells); conditions: antagonistic activity, beta-arrestin assay; read-out: hEP4 b-arr IC50
T3 construct: host or cells: HEK 293 (PathHunter PTGER4 b-arrestin cell line)
T3 sequence (P35408 whole entry): as the sequence (P35408 whole entry) above
Method in brief: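 β-Arrestin recruitment to EP4 was read as enzyme-fragment-complementation chemiluminescence in stably transfected HEK 293 cells. After 15 min compound preincubation at 37 °C (ranges 10 μM–2 nM or 1 μM–0.2 nM), cells were stimulated 120 min with PGE2 at 20 nM, its EC80. IC50 values were fitted from duplicates, with repeat measurements averaged.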

SMILES | IC50 (EP4 receptor) [µM] | IC50 (PTGER2 (EP2)) [µM] | IC50 (PTGER4 (EP4)) [µM]
CCOc1cc(-c2cc(NCCc3c(CC)oc4c(C)cc(F)cc34)ncn2)sc1C(=O)O [Example 39, 3-Ethoxy-5-{6-[2-(2-ethyl-5-fluoro-7-methyl-benzofuran-3-yl)-ethylamino]-pyrimidin-4-yl}-thiophene-2-carboxylic acid] | 0.112 | 0.031 | 0.05
CCSc1cc(-c2cc(NCCc3c(C)oc4ccccc34)ncn2)ccc1C(=O)O [Example 44, 2-Ethylsulfanyl-4-{6-[2-(2-methyl-benzofuran-3-yl)-ethylamino]-pyrimidin-4-yl}-benzoic acid] | 1.38 | 0.001 | 1.02
CSc1cc(-c2cc(NCCc3c(C)sc4c(C)cc(F)cc34)ncn2)ccc1C(=O)O [Example 17, 4-{6-[2-(5-Fluoro-2,7-dimethyl-benzo[b]thiophen-3-yl)-ethylamino]-pyrimidin-4-yl}-2-methylsulfanyl-benzoic acid] | 0.243 | 0.005 | 0.248
CCOc1cc(-c2cc(NCCc3c(C)sc4c(OC)ccc(F)c34)ncn2)sc1C(=O)O [Example 28, 3-Ethoxy-5-{6-[2-(4-fluoro-7-methoxy-2-methyl-benzo[b]thiophen-3-yl)-ethylamino]-pyrimidin-4-yl}-thiophene-2-carboxylic acid] | 0.005 | 0.002 | 0.005
COc1cc(-c2cc(NCCc3c(C)sc4c(OC)ccc(Cl)c34)ncn2)ccc1C(=O)O [Example 40, 4-{6-[2-(4-Chloro-7-methoxy-2-methyl-benzo[b]thiophen-3-yl)-ethylamino]-pyrimidin-4-yl}-2-methoxy-benzoic acid] | 0.433 | 0.048 | 0.68
CCOc1cc(-c2cc(NCCc3c(C)sc4c(OC)ccc(F)c34)ncn2)ccc1C(=O)O [Example 55, 2-Ethoxy-4-{6-[2-(4-fluoro-7-methoxy-2-methyl-benzo[b]thiophen-3-yl)-ethylamino]-pyrimidin-4-yl}-benzoic acid] | 0.138 | 0.015 | 0.117
CCOc1cc(-c2cc(NCCc3c(C)oc4c(OC)cc(Cl)cc34)ncn2)sc1C(=O)O [Example 38, 5-{6-[2-(5-Chloro-7-methoxy-2-methyl-benzofuran-3-yl)-ethylamino]-pyrimidin-4-yl}-3-ethoxy-thiophene-2-carboxylic acid] | 0.08 | 0.009 | 0.012
Cc1cc(-c2cc(NCCc3c(C)sc4c(C)cccc34)ncn2)sc1C(=O)O [Example 3, 5-{6-[2-(2,7-Dimethyl-benzo[b]thiophen-3-yl)-ethylamino]-pyrimidin-4-yl}-3-methyl-thiophene-2-carboxylic acid] | 0.222 | 0.018 | 0.202
CCOc1cc(-c2cc(NCCc3c(C)sc4c(OC)ccc(Cl)c34)ncn2)sc1C(=O)O [Example 30, 5-{6-[2-(4-Chloro-7-methoxy-2-methyl-benzo[b]thiophen-3-yl)-ethylamino]-pyrimidin-4-yl}-3-ethoxy-thiophene-2-carboxylic acid] | 0.011 | 0.01 | 0.018
CCOc1cc(-c2cc(NCCc3c(C#N)sc4c(OC)cccc34)ncn2)ccc1C(=O)O [Example 54, 4-{6-[2-(2-Cyano-7-methoxy-benzo[b]thiophen-3-yl)-ethylamino]-pyrimidin-4-yl}-2-ethoxy-benzoic acid] | 0.047 | 0.194 | 0.06
CSc1cc(-c2cc(NCCc3c(C)sc4c(C)cccc34)ncn2)ccc1C(=O)O [Example 14, 4-{6-[2-(2,7-Dimethyl-benzo[b]thiophen-3-yl)-ethylamino]-pyrimidin-4-yl}-2-methylsulfanyl-benzoic acid] | 0.105 | 0.004 | 0.195
CCOc1cc(-c2cc(NCCc3csc4ccccc34)ncn2)sc1C(=O)O [Example 33, 5-[6-(2-Benzo[b]thiophen-3-yl-ethylamino)-pyrimidin-4-yl]-3-ethoxy-thiophene-2-carboxylic acid] | 0.018 | 0.019 | 0.168
CSc1cc(-c2cc(NCCc3c(C)sc4c(Cl)cc(F)cc34)ncn2)ccc1C(=O)O [Example 23, 4-{6-[2-(7-Chloro-5-fluoro-2-methyl-benzo[b]thiophen-3-yl)-ethylamino]-pyrimidin-4-yl}-2-methylsulfanyl-benzoic acid] | 0.667 | 0.009 | 0.488
CSc1cc(-c2cc(NCCc3c(C)sc4c(Cl)ccc(Cl)c34)ncn2)ccc1C(=O)O [Example 20, 4-{6-[2-(4,7-Dichloro-2-methyl-benzo[b]thiophen-3-yl)-ethylamino]-pyrimidin-4-yl}-2-methylsulfanyl-benzoic acid] | 0.532 | 0.03 | 0.762

Now from value to compound:

IC50 (EP4 receptor) [µM] | IC50 (PTGER2 (EP2)) [µM] | IC50 (PTGER4 (EP4)) [µM] | SMILES
0.714 | 0.014 | 0.659 | CCOc1cc(-c2cc(NCCc3c(C)oc4c(Cl)cccc34)ncn2)ccc1C(=O)O [Example 68, 4-{6-[2-(7-Chloro-2-methyl-benzofuran-3-yl)-ethylamino]-pyrimidin-4-yl}-2-ethoxy-benzoic acid]
0.445 | 0.027 | 0.461 | CCOc1cc(-c2cc(NCCc3c(C)sc4c(Cl)ccc(Cl)c34)ncn2)ccc1C(=O)O [Example 63, 4-{6-[2-(4,7-Dichloro-2-methyl-benzo[b]thiophen-3-yl)-ethylamino]-pyrimidin-4-yl}-2-ethoxy-benzoic acid]
0.297 | 0.017 | 0.1 | CCOc1cc(-c2cc(NCCc3c(C)sc4c(C)cc(F)cc34)ncn2)ccc1-c1cc(O)no1 [Example 202, 5-(2-Ethoxy-4-{6-[2-(5-fluoro-2,7-dimethyl-benzo[b]thiophen-3-yl)-ethylamino]-pyrimidin-4-yl}-phenyl)-isoxazol-3-ol [tautomeric form: 5-(2-ethoxy-4-(6-((2-(5-fluoro-2,7-dimethylbenzo[b]thiophen-3-yl)ethyl)amino)pyrimidin-4-yl)phenyl)isoxazol-3(2H)-one]]
0.393 | 0.012 | 0.499 | CCOc1cc(-c2cc(NCCc3c(C)sc4c(C)c(F)ccc34)ncn2)ccc1C(=O)O [Example 62, 2-Ethoxy-4-{6-[2-(6-fluoro-2,7-dimethyl-benzo[b]thiophen-3-yl)-ethylamino]-pyrimidin-4-yl}-benzoic acid]
0.356 | 0.022 | 0.245 | CCOc1cc(-c2cc(NCCc3c(C)sc4c(C)ccc(F)c34)ncn2)ccc1C(=O)O [Example 61, 2-Ethoxy-4-{6-[2-(4-fluoro-2,7-dimethyl-benzo[b]thiophen-3-yl)-ethylamino]-pyrimidin-4-yl}-benzoic acid]
0.607 | 0.027 | 0.407 | CCOc1cc(-c2cc(NCCc3c(C)sc4c(C)ccc(Cl)c34)ncn2)ccc1C(=O)O [Example 66, 4-{6-[2-(4-Chloro-2,7-dimethyl-benzo[b]thiophen-3-yl)-ethylamino]-pyrimidin-4-yl}-2-ethoxy-benzoic acid]
0.451 | 0.005 | 0.318 | CCCSc1cc(-c2cc(NCCc3c(C)sc4c(C)cccc34)ncn2)ccc1C(=O)O [Example 87, 4-{6-[2-(2,7-Dimethyl-benzo[b]thiophen-3-yl)-ethylamino]-pyrimidin-4-yl}-2-propylsulfanyl-benzoic acid]
0.1 | 0.016 | 0.099 | Cc1sc2c(C)cc(F)cc2c1CCNc1cc(-c2ccc(CC(=O)O)c(OC3CC3)c2)ncn1 [Example 196, (2-Cyclopropoxy-4-{6-[2-(5-fluoro-2,7-dimethyl-benzo[b]thiophen-3-yl)-ethylamino]-pyrimidin-4-yl}-phenyl)-acetic acid]
0.285 | 0.015 | 0.625 | CCOc1cc(-c2cc(NCCc3c(Cl)sc4c(C)cc(F)cc34)ncn2)ccc1C(=O)O [Example 59, 4-{6-[2-(2-Chloro-5-fluoro-7-methyl-benzo[b]thiophen-3-yl)-ethylamino]-pyrimidin-4-yl}-2-ethoxy-benzoic acid]
0.22 | 0.017 | 0.287 | CCOc1cc(-c2cc(NCCc3c(C)sc4c(OC)ccc(Cl)c34)ncn2)ccc1C(=O)O [Example 57, 4-{6-[2-(4-Chloro-7-methoxy-2-methyl-benzo[b]thiophen-3-yl)-ethylamino]-pyrimidin-4-yl}-2-ethoxy-benzoic acid]
0.289 | 0.019 | 4.52 | Cc1sc2c(C)cc(F)cc2c1CCNc1cc(-c2ccc(C(=O)O)c(OCCO)c2)ncn1 [Example 86, 4-{6-[2-(5-fluoro-2,7-dimethyl-benzo[b]thiophen-3-yl)-ethylamino]-pyrimidin-4-yl}-2-(2-hydroxy-ethoxy)-benzoic acid]
0.344 | 0.007 | 0.372 | CCOc1cc(-c2cc(NCCc3c(C)sc4c(C)cccc34)ncn2)ccc1C(=O)O [Example 60, 4-{6-[2-(2,7-Dimethyl-benzo[b]thiophen-3-yl)-ethylamino]-pyrimidin-4-yl}-2-ethoxy-benzoic acid]
